The term IC50 denotes the concentration that inhibits the measured activity by half.

The record followed here is US20250304537A1 (Repare Therapeutics Inc., priority 2022, published 2025).

The first assay has as its system PKMYT1 (CDK1 pThr14) in FUOV1 cells. As to the kind of experiment: PKMYT1 cell-based activity assay, CDK1 pThr14 AlphaLISA in FUOV1 cells. The following applies: 2 h, 2 hours with compound, read-out: FUOV-1 CDK1 pThr14 IC50. In short, it runs like this: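 IC50 was derived from AlphaLISA signal (excitation 680 nm, emission 615 nm) for phospho-Thr14 CDK1 in lysates. The detection antibodies were rabbit anti-pThr14 and mouse anti-total CDK1, each at 5 nM. FUOV1 ovarian cells were exposed to compound for 2 hours before lysis.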
On the technique in general: Alpha assays give light when donor and acceptor beads are brought close together.
Regarding `Cc1cc(F)c2[nH]ncc2c1-c1nc(-c2cc(F)cnc2N[C@H]2CC[C@@](C)(O)CC2)nc(C(N)=O)c1N` [Compound 875], the IC50 was 170 nM.

Regarding `Cc1ccc2[nH]ncc2c1-c1nc(-c2cc(F)cnc2NC2CCN(CC(F)F)CC2)nc(C(N)=O)c1N` [Compound 876], the IC50 is 734 nM.

In the case of `Cc1ccc(Cl)nc1Nc1nc(F)ccc1-c1nc(C(N)=O)c(N)c(-c2c(C)cc(F)c3[nH]ncc23)n1` [Compound 877], the IC50 turned out to be 37 nM.

For `Cc1cc(F)c2[nH]ncc2c1-c1nc(-c2ccc(F)nc2Nc2ncccc2C(F)F)nc(C(N)=O)c1N` [Compound 878], the IC50 stood at 36 nM.

In the case of `Cc1cc(F)c2[nH]ncc2c1-c1nc(-c2ccc(F)nc2Nc2nc(F)ccc2F)nc(C(N)=O)c1N` [Compound 879], the IC50 amounted to 7 nM.

Regarding `Cc1cc(F)c2[nH]ncc2c1-c1nc(-c2ccc(F)cc2Nc2ncccc2C#N)nc(C(N)=O)c1N` [Compound 880], the IC50 is 8 nM.

As for `Cc1ccc2[nH]ncc2c1-c1nc(-c2ccccc2NC2CC(O)(C(F)(F)F)C2)nc(C(N)=O)c1N` (stereo not drawn) [Compound 882], the half-maximal inhibitory concentration (IC50) was 49 nM.

Take `Cc1ccc2[nH]ncc2c1-c1nc(-c2cc(F)cnc2N[C@@H]2CCOCC2(F)F)nc(C(N)=O)c1N` [Compound 883]: the IC50 stood at 36 nM.

In the case of `Cc1ccc2[nH]ncc2c1-c1nc(-c2ccnnc2Nc2ncccc2F)nc(C(N)=O)c1N` [Compound 886, 5-amino-2-(3-((3-fluoropyridin-2-yl)amino)pyridazin-4-yl)-6-(5-methyl-1H-indazol-4-yl)pyrimidine-4-carboxamide], the IC50 came to 37 nM.

Take `Cc1cc(F)c2[nH]ncc2c1-c1nc(-c2cc(F)cnc2N[C@H]2CCOC[C@H]2F)nc(C(N)=O)c1N` [Compound 887]: the half-inhibitory concentration (IC50) was 104 nM.

Regarding `Cc1ccc2[nH]ncc2c1-c1nc(-c2cc(F)cnc2N[C@@H](C)C(F)(F)F)nc(C(N)=O)c1N` [Compound 888], the IC50 turned out to be 111 nM.

For `Cc1ccc2[nH]ncc2c1-c1nc(-c2cc(F)cnc2N[C@H](C)C(F)(F)F)nc(C(N)=O)c1N` [Compound 889], the IC50 was determined as 56 nM.

Turning to `Cc1ccc2[nH]ncc2c1-c1nc(-c2cc(F)cnc2N[C@H]2C[C@H]3CC[C@@H]2O3)nc(C(N)=O)c1N` [Compound 891], the IC50 amounted to 22 nM.

Consider `Cc1ccc2[nH]ncc2c1-c1nc(-c2cc(F)cnc2NCc2cnn(C)c2)nc(C(N)=O)c1N` [Compound 895], for which the half-inhibitory concentration (IC50) was 876 nM.

Regarding `Cc1ccc2n[nH]cc2c1-c1nc(-c2cc(F)cnc2N[C@H]2C[C@](O)(C(F)F)C2)nc(C(N)=O)c1N` [Compound 897], the half-inhibitory concentration (IC50) worked out at 122 nM.

Take `Cc1ccc2[nH]ncc2c1-c1nc(-c2cc(F)cnc2N[C@H]2C[C@@H]3CC[C@H]2O3)nc(C(N)=O)c1N` [Compound 899]: the IC50 was determined as 33 nM.

Turning to `Cc1ccc2[nH]ncc2c1-c1nc(-c2ccc(F)cc2N[C@H]2C[C@H](O)C2)nc(C(N)=O)c1N` [Compound 906], the IC50 came out at 51 nM.

Turning to `Cc1cc(F)c2[nH]ncc2c1-c1nc(-c2ccc(C(F)F)nc2Nc2ncccn2)nc(C(N)=O)c1N` [Compound 907], the half-maximal inhibitory concentration (IC50) was found to be 214 nM.

Consider `Cc1cc(F)c2[nH]ncc2c1-c1nc(-c2ccc(C(F)F)nc2Nc2nccnc2Cl)nc(C(N)=O)c1N` [Compound 909], for which the IC50 is 107 nM.

As to `Cc1ccc2[nH]ncc2c1-c1nc(-c2cn(C(F)(F)F)nc2NC2CCOCC2)nc(C(N)=O)c1N` [Compound 910], the IC50 was determined as 200 nM.

Regarding `Cc1ccc(-c2nc(C(N)=O)c(N)c(-c3c(C)ccc4[nH]ncc34)n2)c(Nc2ncccc2F)n1` [Compound 911], the IC50 came to 1 nM.

On to `NC(=O)c1nc(-c2cccnc2NCC(F)(F)F)nc(-c2c(Cl)ccc3[nH]ncc23)c1N` [Compound 912], for which the IC50 turned out to be 178 nM.

For the molecule `NC(=O)c1nc(-c2ccc(F)nc2Nc2ncccc2F)nc(-c2c(Cl)ccc3[nH]ncc23)c1N` [Compound 913], the IC50 was determined as 8 nM.

In the case of `Cc1ccc2[nH]ncc2c1-c1nc(-c2cccnc2NC2CC2)nc(C(N)=O)c1N` [Compound 914, 5-amino-2-(2-(cyclopropylamino)pyridin-3-yl)-6-(5-methyl-1H-indazol-4-yl)pyrimidine-4-carboxamide], the concentration for half-maximal inhibition (IC50) is 54 nM.

For the molecule `Cn1cc(-c2nc(C(N)=O)c(N)c(-c3c(Cl)ccc4[nH]ncc34)n2)c(NC2CCOCC2)n1` [Compound 915], the IC50 turned out to be 164 nM.

In the case of `Cc1ccc2[nH]ncc2c1-c1nc(-c2cn(C)nc2Nc2ccccn2)nc(C(N)=O)c1N` [Compound 916, 5-amino-6-(5-methyl-1H-indazol-4-yl)-2-(1-methyl-3-(pyridin-2-ylamino)-1H-pyrazol-4-yl)pyrimidine-4-carboxamide], the half-inhibitory concentration (IC50) was 926 nM.

Regarding `Cc1ccc2[nH]ncc2c1-c1nc(-c2ccc(F)nc2Nc2cccnc2F)nc(C(N)=O)c1N` [Compound 917], the 50% inhibitory concentration (IC50) amounted to 203 nM.

For `Cc1ccc2[nH]ncc2c1-c1nc(-c2cccnc2N[C@H]2C[C@@](C)(O)C2)nc(C(N)=O)c1N` [Compound 918], the half-inhibitory concentration (IC50) was found to be 47 nM.

Consider `NC(=O)c1nc(-c2cccnc2NC2CC2)nc(-c2c(Cl)ccc3[nH]ncc23)c1N` [Compound 919], for which the IC50 turned out to be 92 nM.

Regarding `Cn1cc(-c2nc(C(N)=O)c(N)c(-c3c(Cl)ccc4[nH]ncc34)n2)c(NC2CCCC2)n1` [Compound 920], the IC50 was 118 nM.

Consider `Cc1ccc2[nH]ncc2c1-c1nc(-c2ccc(F)nc2Nc2nc(F)ccc2F)nc(C(N)=O)c1N` [Compound 921], for which the IC50 amounted to 4 nM.

As for `COc1ccc(F)c(Nc2nc(F)ccc2-c2nc(C(N)=O)c(N)c(-c3c(C)ccc4[nH]ncc34)n2)n1` [Compound 922], the IC50 was 34 nM.

`NC(=O)c1nc(-c2ccc(F)nc2Nc2ncccn2)nc(-c2c(Cl)ccc3[nH]ncc23)c1N` [Compound 923]: the IC50 is 68 nM.

On to `Cc1ccc2[nH]ncc2c1-c1nc(-c2ccc(F)nc2Nc2nccnc2Cl)nc(C(N)=O)c1N` [Compound 924], for which the IC50 worked out at 15 nM.

As to `Cc1ccc2[nH]ncc2c1-c1nc(-c2cn(C)nc2Nc2ncccc2F)nc(C(N)=O)c1N` [Compound 925], the IC50 stood at 129 nM.

Take `Cc1ccc2[nH]ncc2c1-c1nc(-c2cn(C)nc2Nc2ncccn2)nc(C(N)=O)c1N` [Compound 926]: the concentration for half-maximal inhibition (IC50) amounted to 659 nM.

Take `Cc1ccc2[nH]ncc2c1-c1nc(-c2c[nH]nc2NC2CCOCC2)nc(C(N)=O)c1N` [Compound 927]: the IC50 came to 343 nM.

`Cc1ccc2[nH]ncc2c1-c1nc(-c2ccc(C(F)F)nc2Nc2ncccn2)nc(C(N)=O)c1N` [Compound 928]: the IC50 amounted to 144 nM.

With `Cc1ccc2[nH]ncc2c1-c1nc(-c2ccc(F)nc2Nc2ncccc2F)nc(C(N)=O)c1N` [Compound 929], the concentration for half-maximal inhibition (IC50) amounted to 7 nM.

Take `[2H]C([2H])([2H])c1ccc2[nH]ncc2c1-c1nc(-c2ccc(F)nc2Nc2ncccc2F)nc(C(N)=O)c1N` [Compound 930]: the IC50 was found to be 5 nM.

Turning to `Cc1ccc2[nH]ncc2c1-c1nc(-c2ccc(C(F)F)nc2Nc2ncccc2F)nc(C(N)=O)c1N` [Compound 931], the IC50 stood at 14 nM.

Take `NC(=O)c1nc(-c2cccnc2NC2CC2)nc(-c2cccc3[nH]ncc23)c1N` [Compound 932]: the IC50 was 469 nM.

For `NC(=O)c1nc(-c2cccnc2NC2CC2)nc(-c2c(F)ccc3[nH]ncc23)c1N` [Compound 933], the IC50 came to 65 nM.

For `Cc1ccc2[nH]ncc2c1-c1nc(-c2ccc(F)nc2Nc2ncccc2C#N)nc(C(N)=O)c1N` [Compound 934], the IC50 stood at 12 nM.

For the molecule `Cc1ccc2[nH]ncc2c1-c1nc(-c2ccc(Cl)nc2Nc2ncccc2C#N)nc(C(N)=O)c1N` [Compound 935], the IC50 turned out to be 8 nM.

For the molecule `Cc1ccc2[nH]ncc2c1-c1nc(-c2ccncc2Nc2ncccc2F)nc(C(N)=O)c1N` [Compound 938], the IC50 stood at 2 nM.

On to `Cc1ccc2[nH]ncc2c1-c1nc(-c2cc(Cl)ncc2Nc2ncccc2F)nc(C(N)=O)c1N` [Compound 939], for which the IC50 was 9 nM.

As to `Cc1ccc2[nH]ncc2c1-c1nc(-c2ccc(F)cc2Nc2ccnc(C3CC3)n2)nc(C(N)=O)c1N` [Compound 940], the IC50 was determined as 269 nM.

For `Cc1ccc(-c2nc(C(N)=O)c(N)c(-c3c(C)ccc4[nH]ncc34)n2)c(Nc2nccc(Cl)n2)n1` [Compound 941], the IC50 came to 9 nM.

With `NC(=O)c1nc(-c2cccnc2NCC(F)(F)F)nc(-c2c(Cl)c(F)cc3[nH]ncc23)c1N` [Compound 942], the half-maximal inhibitory concentration (IC50) worked out at 396 nM.

Consider `Cc1ccc(Cl)nc1Nc1nc(F)ccc1-c1nc(C(N)=O)c(N)c(-c2c(C)ccc3[nH]ncc23)n1` [Compound 943], for which the concentration for half-maximal inhibition (IC50) came to 22 nM.

On to `Cc1ccc2[nH]ncc2c1-c1nc(-c2ccc(Cl)nc2Nc2ncccc2C(F)F)nc(C(N)=O)c1N` [Compound 944], for which the half-maximal inhibitory concentration (IC50) stood at 28 nM.

On to `Cc1ccc2[nH]ncc2c1-c1nc(-c2ccc(F)nc2Nc2ncccc2C(F)F)nc(C(N)=O)c1N` [Compound 945], for which the IC50 was determined as 23 nM.

As for `[2H]C([2H])([2H])c1ccc2[nH]ncc2c1-c1nc(-c2ccc(Cl)nc2Nc2ncccn2)nc(C(N)=O)c1N` [Compound 946], the IC50 was determined as 51 nM.

With `Cc1ccc2[nH]ncc2c1-c1nc(-c2ccc(F)nc2Nc2nc(C(F)F)ccc2F)nc(C(N)=O)c1N` [Compound 947], the IC50 is 4 nM.

Turning to `NC(=O)c1nc(-c2ccccc2Nc2ncccn2)nc(-c2c(Cl)ccc3[nH]ncc23)c1N` [Compound 948], the IC50 stood at 44 nM.

`NC(=O)c1nc(-c2ccc(F)cc2Nc2ncccn2)nc(-c2c(Cl)ccc3[nH]ncc23)c1N` [Compound 949]: the IC50 stood at 50 nM.

With `Cc1ccc(-c2nc(C(N)=O)c(N)c(-c3c(Cl)ccc4[nH]ncc34)n2)c(Nc2ncccn2)n1` [Compound 950], the concentration for half-maximal inhibition (IC50) came out at 42 nM.

The same assay, now with this note: 2 hours with compound, read-out: FUOV-1 CDK1 pThr14 IC50.
On to `Cc1ccc2[nH]ncc2c1-c1nc(-c2cc(F)cnc2N[C@@H]2C[C@@H]3CC[C@H]2O3)nc(C(N)=O)c1N` [Compound 890], for which the half-inhibitory concentration (IC50) is 81 nM.

In the case of `Cc1ccc2[nH]ncc2c1-c1nc(-c2cc(F)cnc2N[C@@H]2C[C@H]3CC[C@@H]2O3)nc(C(N)=O)c1N` [Compound 898], the half-maximal inhibitory concentration (IC50) was 76 nM.
